US12065435B2, “Compounds for the treatment of glycogen storage disorders” (HADASIT MEDICAL RESEARCH SERVICES AND DEVELOPMENT LTD., priority 2017, dated 2024)

What was measured:
[1] = target: T1, recombinant human GS1 (Homo sapiens, UniProt P13807); test: In vitro GS activity assay; format: biochemical; conditions: 50 μM; unpaired t-tests, p<0.05
T1 sequence (P13807 1-737): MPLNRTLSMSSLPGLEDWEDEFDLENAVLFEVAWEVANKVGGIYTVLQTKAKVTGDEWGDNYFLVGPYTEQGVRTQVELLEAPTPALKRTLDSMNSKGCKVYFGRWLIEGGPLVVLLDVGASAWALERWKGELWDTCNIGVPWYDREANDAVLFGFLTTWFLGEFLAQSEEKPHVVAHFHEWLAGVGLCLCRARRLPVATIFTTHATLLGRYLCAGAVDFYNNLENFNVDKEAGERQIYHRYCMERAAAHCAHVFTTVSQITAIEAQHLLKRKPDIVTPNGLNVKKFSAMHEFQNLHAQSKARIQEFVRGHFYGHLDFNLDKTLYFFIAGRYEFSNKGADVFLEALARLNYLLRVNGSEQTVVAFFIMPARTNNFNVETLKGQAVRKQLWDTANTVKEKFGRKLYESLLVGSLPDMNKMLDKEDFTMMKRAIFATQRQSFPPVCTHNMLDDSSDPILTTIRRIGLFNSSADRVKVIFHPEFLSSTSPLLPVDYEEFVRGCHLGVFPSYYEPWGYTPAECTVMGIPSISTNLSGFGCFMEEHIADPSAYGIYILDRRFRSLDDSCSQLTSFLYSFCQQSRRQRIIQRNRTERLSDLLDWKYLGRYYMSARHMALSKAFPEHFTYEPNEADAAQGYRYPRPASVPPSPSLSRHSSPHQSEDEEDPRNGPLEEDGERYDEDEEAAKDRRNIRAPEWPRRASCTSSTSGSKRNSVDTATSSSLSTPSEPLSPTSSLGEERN
Experimental: The reaction was carried out in 96-well plates containing 50 μl of reaction volume (50 mM Tris, pH8, 20 mM EDTA, 25 mM KF, 2 mg/ml glycogen, 10 mM Glucose-6-Phosphate, 1.65 mM UDP[14C]glucose and 100 mM UDP-glucose). To test the inhibitory effect of the hits, each one was included in the reaction at a final concentration of 50 μM. The reaction was initiated with the addition of 20 nM recombinant human GS1, followed by incubation at 37° C. for 30 min. The reaction was then stopped with the addition of 100 μl cold 100% ethanol, and the total suspension was transferred into a 96-well filter plate. Vacuum was applied to remove the ethanol. Five washing steps with 150 μl of cold 66% ethanol then fully removed any non-incorporated UDP[14C]glucose, while the labelled glycogen stayed on the well filters. The plate was dried at 37° C. incubator for 30 min. 50 μl of scintillation fluid was added to each well and the plate was read for 14C signal on Microplate scintillation and luminescence counter Top Count (Perkin Elmer).

[2] = tested on: APBD modeling mice (Gbe^Y329S/Y329S mouse model); test: Motor parameters in APBD modeling mice; format: in vivo
Experimental: This study was conducted in compounds A and B according to the schemes described in Tables 8 and 9, respectively.
As vehicle control, 0.1% DMSO was used. It is noteworthy that, in order to have a statistically significant number of animals, compound A was tested in male mice and compound B in female mice (no mixed cages were allowed).
APBD is an autosomal disease with no gender related symptoms and it was presumed that this experimental design is optimal. The mode of delivery of the compounds was intravenous (IV) injection for the first month, followed by subcutaneous injection due to lack of injection space and scaring in animal tails.
Tables 8 and 9 describe the study design for compounds A and B. both compounds were tested at the age of 4 months, two months prior to disease onset, in order to assess possible prophylactic effects, and at the age of 6 months, at disease onset, in order to assess corrective effects.
The effect of compounds A and B on various motor parameters was tested every two weeks. The results are shown in herein.
The point of reference is one time point prior to treatment initiation. Please note, since animals first treated with the compounds at 6 months of age were not injected at all before that age, they could not have been compared to animals pre-injected with vehicle. Therefore, the duration of the longitudinal studies for the cohorts first treated at the age of 6 months is shorter than that of the animals first treated at 4 months of age.

[3] = tested on: polyglucosan body (PB) in APBD patient-derived fibroblasts; test: High content (image-based) PAS screening assay for polyglucosan bodies; format: cell-based, human; conditions: 0, 1, 5, 10 and 50 μM
Experimental: All the steps of the assay were performed automatically using a Freedom Evo 150 liquid handling robot (Tecan). APBD patient-derived fibroblasts were seeded at a density of 800 cells/well in DMEM (Gibco) supplemented with 1 mM sodium pyruvate (Gibco), 1% antibiotics (Biological Industries, Israel) and 5% fetal bovine serum (Hyclone) into 384 well microclear plates (Greiner). The plates were transferred by the robotic arm (RoMa) into an automated incubator (Liconic), integrated with the robotic system, where they were incubated at 37° C. with 5% CO2. Following 24 h incubation, the medium was replaced by the robot using medium supplemented with 10 μM of each screened compound (0.1% DMSO final concentration, all prepared by the robot). The screened compounds were part of the Diverset CL collection purchased from ChemBridge (10,084 out of 50,000 molecules).
Next, these cells were cultured for another 24 h in the automated incubator, and, using the robot, washed them with PBS (Biological Industries, Israel), the cells were fixed with 4% paraformaldehyde (PFA), washed again with PBS, neutralized the previously added PFA by ammonium chloride (Sigma Aldrich), washed with PBS, permeabilized with 0.1% Triton X-100 (Sigma Aldrich), and washed again with PBS.
Following this, a robot was used to treat the fixed cells with 0.5 g/dl diastase (or amylase, Sigma Aldrich) for 5 minutes at 37° C. in the automated incubator, wash with PBS, stained with PAS (Merck), Hoechst 33342 (Sigma Aldrich) and Cell Mask Deep Red (Molecular Probes) and wash with PBS. Images of stained cells were then acquired by the IN Cell Analyzer 2000 (GE Healthcare) and analyzed using the IN Cell Investigator (GE Healthcare) applying an algorithm that quantified the PAS signal within each Cell Mask stained cell.
Images were segmented based on the Cell Mask signal which was linked with the segmentation of the nuclei, employing an empirically established sensitivity and kernel size for allowing the best segmentation. Once these nucleus-cytoplasm complex objects were selected, the software calculated the number of these objects (cell number) as well as the intensity of the PAS signal within each of them. All the assay parameters (including the acquisition exposure times, objective, and the analysis parameters) were kept constant throughout the whole screening campaign for allowing comparison of signals obtained from different batches of assay within the campaign.
The assay was performed as mentioned above, but with compound concentrations of 1, 5, 10, and 50 μM, instead of a constant concentration of 10 μM.
The discarded data was presumably associated with cells affected by toxic compounds. In the remaining data, the measured population mean PB intensity was normalized. Based on a series of images used for training, compounds were considered as positive only where following treatment the normalized PB mean intensity was at least under −1.2 z-score of the scale. Following this approach, 85 potential hits out of the 10,084 screened compounds were selected (0.84%).

[4] = treated from 4 months of age (2 months before onset), two way ANOVA with repeated measures
[5] = treated from 4 months of age, Bonferroni's multiple comparisons test
[6] = treated from 6 months of age (at onset), two way ANOVA with repeated measures
[7] = treated from 6 months of age, Bonferroni's multiple comparisons test

COCc1c(C(=O)N2[C@@H]3CC[C@H]2CN(C)C(=O)C3)noc1C (relative stereo) [UDP #19, (1S*,6R*)-9-{[4-(methoxymethyl)-5-methylisoxazol-3-yl]carbonyl}-3-methyl-3,9-diazabicyclo[4.2.1]nonan-4-one]
effect on GS activity (direction of change) [1]: increasing
apathy, mobility and responsiveness to experimenter ([2]; 250 mg/kg, IV first month then subcutaneous): less apathic, more mobile and more responsive to intervention by the experimenter
ameliorating effect on motor parameters (summary) ([2]; 250 mg/kg, IV first month then subcutaneous, tested every two weeks): ameliorate grip strength
average duration in movement in an open field test vs vehicle [2, 4]: not different from vehicle (p<0.1)
average front paw grip strength vs vehicle [2, 4]: different from vehicle with p<0.055
average gait length vs vehicle [2, 4]: not different from vehicle (p<0.1)
average gait width vs vehicle [2, 4]: not different from vehicle (p<0.1)
average latency to fall off a metal wire vs vehicle [2, 4]: not different from vehicle (p<0.1)
average latency to fall off a rotating cylinder (rotarod) vs vehicle [2, 4]: the latency to fall was shorter in treated animals (p<0.089)
average regularity of step distance (Coefficient of Variance of all R-R and L-L step distances) vs vehicle [2, 4]: not different from vehicle (p<0.1)
average uniformity of step alternation (|0.5-(R-L/R-R)|) vs vehicle [2, 4]: not different from vehicle (p<0.1)
extension reflex vs vehicle [2, 4]: not different from vehicle (p<0.1)
average duration in movement in an open field test vs vehicle [2, 5]: no significant difference
average front paw grip strength vs vehicle [2, 5]: no significant difference
average gait length vs vehicle [2, 5]: no significant difference
average gait width vs vehicle [2, 5]: no significant difference
average latency to fall off a metal wire vs vehicle [2, 5]: no significant difference
average latency to fall off a rotating cylinder (rotarod) vs vehicle [2, 5]: 57 days after treatment initiation latency to fall was lower in treated mice as compared to vehicle control (p<0.05)
average regularity of step distance vs vehicle [2, 5]: no significant difference
average uniformity of step alternation vs vehicle [2, 5]: no significant difference
extension reflex vs vehicle [2, 5]: no significant difference
average duration in movement in an open field test vs vehicle [2, 6]: not different from vehicle (p<0.1)
average front paw grip strength vs vehicle [2, 6]: different from vehicle with p<0.1
average gait length vs vehicle [2, 6]: not different from vehicle (p<0.1)
average gait width vs vehicle [2, 6]: not different from vehicle (p<0.1)
average latency to fall off a metal wire vs vehicle [2, 6]: not different from vehicle (p<0.1)
average latency to fall off a rotating cylinder (rotarod) vs vehicle [2, 6]: the latency to fall was shorter in treated animals (p<0.089)
average regularity of step distance vs vehicle [2, 6]: not different from vehicle (p<0.1)
average uniformity of step alternation (|0.5-(R-L/R-R)|) vs vehicle [2, 6]: not different from vehicle (p<0.1)
extension reflex vs vehicle [2, 6]: not different from vehicle (p<0.1)
average duration in movement in an open field test vs vehicle [2, 7]: no significant difference
average front paw grip strength vs vehicle [2, 7]: no significant difference
average gait length vs vehicle [2, 7]: no significant difference
average gait width vs vehicle [2, 7]: no significant difference
average latency to fall off a metal wire vs vehicle [2, 7]: no significant difference
average latency to fall off a rotating cylinder (rotarod) vs vehicle [2, 7]: no significant difference
average regularity of step distance vs vehicle [2, 7]: no significant difference
average uniformity of step alternation vs vehicle [2, 7]: a significant difference (p<0.05) between vehicle and treatment at 53 days after treatment initiation
extension reflex vs vehicle [2, 7]: no significant difference
dose response of diastase resistant cell associated mean PAS intensity normalized by z-score [3]: concentration dependent
